From ChEMBL document CHEMBL3046670, “Synthesis of Esters, Amides, N-Alkylamides and N, N-Dialkylamides of 2, 3-Dimethyl-5-(2, 5-disubstituted phenylaminocarbonyl)-6-pyrazinecarboxylic Acid and Their Phytotoxicity” (1992)
Activity calls are given as the source filed them. The calls are words filed in the database; no cut-off is given here.

Experiments:
Format in all cases: functional
[1] = test system: Lactuca sativa; assay: Inhibition of Lactuca sativa longifolia Lams (lettuce) seed germination at 300 ppm after 5 days relative to control; conditions: for inhibition at 300 ppm: 120 h
[2] = test system: Eleusine indica; assay: Inhibition of Eleusine indica seed germination at 50 ppm after 5 days relative to control; conditions: for inhibition at 50 ppm: 120 h
[3] = test system: Eleusine indica; assay: Inhibition of Eleusine indica seed germination at 100 ppm after 5 days relative to control; conditions: for inhibition at 100 ppm: 120 h
[4] = test system: Lactuca sativa; assay: Inhibition of Lactuca sativa longifolia Lams (lettuce) seed germination at 50 ppm after 5 days relative to control; conditions: for inhibition at 50 ppm: 120 h
[5] = test system: Eleusine indica; assay: Inhibition of Eleusine indica germination at 300 ppm after 5 days relative to control; conditions: for inhibition at 300 ppm: 120 h
[6] = test system: Lactuca sativa; assay: Inhibition of Lactuca sativa longifolia Lams (lettuce) seed germination at 100 ppm after 5 days relative to control; conditions: for inhibition at 100 ppm: 120 h
[7] = test system: Schoenoplectiella juncoides; assay: Pre-emergence herbicidal activity against Schoenoplectiella juncoides at 50 g a.i./a measured after 3 weeks
[8] = test system: Oryza sativa; assay: Herbicidal activity against Oryza sativa (rice) at 50 g a.i./a applied at one-leaf stage by foliar application measured after 3 weeks
[9] = test system: Echinochloa crus-galli; assay: Herbicidal activity against Echinochloa crus-galli (barnyard grass) at 50 g a.i./a measured after 2 weeks
[10] = test system: Sagittaria pygmaea; assay: Herbicidal activity against Sagittaria pygmaea at 50 g a.i./a measured after 3 weeks
[11] = test system: Cyperus serotinus; assay: Herbicidal activity against Cyperus serotinus at 50 g a.i./a measured after 3 weeks
[12] = test system: Schoenoplectiella juncoides; assay: Herbicidal activity against Schoenoplectiella juncoides at 50 g a.i./a applied at one-leaf stage by foliar application measured after 3 weeks

CCN(CC)C(=O)c1nc(C)c(C)nc1C(=O)Nc1cc(C)ccc1C
inhibition [1]: inactive | inhibition [2]: inactive | inhibition [3]: inactive | inhibition [4]: inactive | inhibition [5]: inactive | inhibition [6]: inactive

Cc1ccc(C)c(NC(=O)c2nc(C)c(C)nc2C(=O)OCC(C)C)c1
inhibition [1]: inactive | inhibition [2]: inactive | inhibition [3]: inactive | inhibition [4]: inactive | inhibition [5]: inactive | inhibition [6]: inactive

CCC(C)OC(=O)c1nc(C)c(C)nc1C(=O)Nc1cc(C)ccc1C (stereo not given)
inhibition at 300 ppm [1]: 36% | inhibition at 100 ppm [3]: 13% | inhibition at 300 ppm [5]: 15% | inhibition at 100 ppm [6]: 32%

CCCOC(=O)c1nc(C)c(C)nc1C(=O)Nc1cc(Cl)ccc1Cl
inhibition [3]: inactive

CCOC(=O)c1nc(C)c(C)nc1C(=O)Nc1cc(Cl)ccc1Cl
inhibition [3]: inactive

CCCC(C)OC(=O)c1nc(C)c(C)nc1C(=O)Nc1cc(C)ccc1C (stereo not given)
inhibition at 300 ppm [1]: 50% | inhibition [2]: inactive | inhibition at 100 ppm [3]: 32% | inhibition [4]: inactive | inhibition at 300 ppm [5]: 33% | inhibition at 100 ppm [6]: 44%

Cc1nc(C(=O)Nc2cc(Cl)ccc2Cl)c(C(=O)OC(C)C)nc1C
inhibition [3]: inactive

Cc1ccc(C)c(NC(=O)c2nc(C)c(C)nc2C(=O)OCCC(C)C)c1
inhibition [1]: inactive | inhibition [2]: inactive | inhibition [3]: inactive | inhibition [4]: inactive | inhibition [5]: inactive | inhibition [6]: inactive

CCCCCOC(=O)c1nc(C)c(C)nc1C(=O)Nc1cc(C)ccc1C
inhibition [1]: inactive | inhibition [2]: inactive | inhibition [3]: inactive | inhibition [4]: inactive | inhibition [5]: inactive | inhibition [6]: inactive

Cc1ccc(C)c(NC(=O)c2nc(C)c(C)nc2C(=O)OC(C)C)c1
inhibition at 100 ppm [3]: 20%

Cc1ccc(C)c(NC(=O)c2nc(C)c(C)nc2C(=O)NCC(C)C)c1
Activity [7]: 10% | Activity [8]: 99% | Activity [9]: 90% | inhibition at 300 ppm [1]: 62% | inhibition at 50 ppm [2]: 53% | inhibition at 100 ppm [3]: 47% | Activity [10]: 95% | inhibition at 50 ppm [4]: 55% | inhibition at 300 ppm [5]: 50% | Activity [11]: 100% | inhibition at 100 ppm [6]: 59% | Activity [12]: 80%

CCCCNC(=O)c1nc(C)c(C)nc1C(=O)Nc1cc(C)ccc1C
Activity [7]: 100% | Activity [8]: 100% | Activity [9]: 80% | inhibition at 300 ppm [1]: 34% | inhibition at 100 ppm [3]: 39% | Activity [10]: 90% | inhibition at 300 ppm [5]: 40% | Activity [11]: 100% | inhibition at 100 ppm [6]: 35% | Activity [12]: 60%

CCCCCN(CCCCC)C(=O)c1nc(C)c(C)nc1C(=O)Nc1cc(C)ccc1C
inhibition [1]: inactive | inhibition [2]: inactive | inhibition [3]: inactive | inhibition [4]: inactive | inhibition [5]: inactive | inhibition [6]: inactive

CCC(C)NC(=O)c1nc(C)c(C)nc1C(=O)Nc1cc(C)ccc1C (stereo not given)
Activity [7]: 100% | Activity [8]: 99% | Activity [9]: 70% | inhibition at 300 ppm [1]: 72% | inhibition at 50 ppm [2]: 38% | inhibition at 100 ppm [3]: 41% | Activity [10]: 75% | inhibition at 50 ppm [4]: 61% | inhibition at 300 ppm [5]: 44% | Activity [11]: 95% | inhibition at 100 ppm [6]: 65% | Activity [12]: 50%

CCCCN(CCCC)C(=O)c1nc(C)c(C)nc1C(=O)Nc1cc(C)ccc1C
inhibition [1]: inactive | inhibition [2]: inactive | inhibition [3]: inactive | inhibition [4]: inactive | inhibition [5]: inactive | inhibition [6]: inactive

Cc1ccc(C)c(NC(=O)c2nc(C)c(C)nc2C(=O)NC(C)C)c1
Activity [7]: 50% | Activity [8]: 70% | Activity [9]: 0% | inhibition at 300 ppm [1]: 68% | inhibition at 50 ppm [2]: 30% | inhibition at 100 ppm [3]: 30% | Activity [10]: 0% | inhibition at 50 ppm [4]: 58% | inhibition at 300 ppm [5]: 36% | Activity [11]: 0% | inhibition at 100 ppm [6]: 66% | Activity [12]: 30%

COC(=O)c1nc(C)c(C)nc1C(=O)Nc1cc(Cl)ccc1Cl
inhibition [3]: inactive

Cc1ccc(C)c(NC(=O)c2nc(C)c(C)nc2C(=O)NCCC(C)C)c1
Activity [7]: 100% | Activity [8]: 99% | Activity [9]: 70% | inhibition at 300 ppm [1]: 47% | inhibition at 50 ppm [2]: 32% | inhibition at 100 ppm [3]: 34% | Activity [10]: 85% | inhibition at 50 ppm [4]: 43% | inhibition at 300 ppm [5]: 40% | Activity [11]: 80% | inhibition at 100 ppm [6]: 41% | Activity [12]: 20%

Cc1ccc(C)c(NC(=O)c2nc(C)c(C)nc2C(=O)N(C)C)c1
inhibition [1]: inactive | inhibition [2]: inactive | inhibition [3]: inactive | inhibition [4]: inactive | inhibition [5]: inactive | inhibition [6]: inactive

CCCCOC(=O)c1nc(C)c(C)nc1C(=O)Nc1cc(C)ccc1C
inhibition [1]: inactive | inhibition [2]: inactive | inhibition [3]: inactive | inhibition [4]: inactive | inhibition [5]: inactive | inhibition [6]: inactive

CCCNC(=O)c1nc(C)c(C)nc1C(=O)Nc1cc(C)ccc1C
Activity [7]: 80% | Activity [8]: 95% | Activity [9]: 50% | inhibition at 300 ppm [1]: 54% | inhibition at 50 ppm [2]: 42% | inhibition at 100 ppm [3]: 47% | Activity [10]: 0% | inhibition at 50 ppm [4]: 43% | inhibition at 300 ppm [5]: 47% | Activity [11]: 90% | inhibition at 100 ppm [6]: 56% | Activity [12]: 40%

Cc1ccc(C)c(NC(=O)c2nc(C)c(C)nc2C(N)=O)c1
inhibition at 100 ppm [3]: 20%

CCCN(CCC)C(=O)c1nc(C)c(C)nc1C(=O)Nc1cc(C)ccc1C
inhibition [1]: inactive | inhibition [2]: inactive | inhibition [3]: inactive | inhibition [4]: inactive | inhibition [5]: inactive | inhibition [6]: inactive
